Laboratory results published in patent US7288532B1, “Modified chitosan polymers and enzymatic methods for the production thereof” (The University of Maryland Biotechnology Institute, priority 1998, dated 2007).

System: tyrosinase
Assay: tyrosinase activity under mildly acidic conditions by consumption of dissolved oxygen
Type: biochemical, mushroom
Details: chlorogenic acid 6 mM, 0.16% chitosan, pH about 5.8 to 6.0, tyrosinase 60 U/mL
Procedure: The reactivity of tyrosinase under mildly acidic conditions was studied to verify that the enzyme remains active in acidic solution. The progress of the reaction was measured by monitoring the consumption of dissolved oxygen, using the method described in Mayer et al., “Assay of catechol oxidase: A critical comparison of methods,” Phytochem., 5:783-789 (1966). The dissolved oxygen probe used in these measurements was obtained from Microelectrodes, Londonderry, N.H. Chlorogenic acid (6 mM) was added to a 0.16% chitosan solution, and the pH was adjusted to about 5.8 to 6.0. Tyrosinase (60 U/mL) was added, the reaction vessel sealed, and the dissolved oxygen content measured as a function of time. Two control solutions were prepared and monitored in the same manner, one containing only tyrosinase and chitosan (no phenolic compound), and one containing only chlorogenic acid and chitosan (no enzyme). The results of these measurements are shown in FIG. 1, with the two control solutions labeled “tyrosinase only” and “chlorogenic acid only,” respectively. […] In the solution containing both tyrosinase and chlorogenic acid, however, the oxygen level dropped rapidly in the first few minutes, reaching essentially zero after about 10 to 12 minutes.

O=C(/C=C/c1ccc(O)c(O)c1)O[C@@H]1C[C@](O)(C(=O)O)C[C@@H](O)[C@H]1O [chlorogenic acid]
time for dissolved oxygen level to reach essentially zero: 10 to 12 min
